# In patent publication EP0316592A2, “3'-Fluoro-2',3'-dideoxyuridine, and its therapeutic application” (Stichting REGA V.Z.W., priority 1987, dated 1989):
# Where “and” joins values, the source holds several entries; their conditions need not be identical. Identical values can stand only once. Like-named read-outs stand apart in the source and are kept apart here.
# Experiments:
# HIV = assay: Inhibition of HIV-induced cytopathogenicity in MT4 cells; format: cell-based; conditions: for EC50: 50% reduction in the cytopathic effect of HIV for MT4 cells, 5 days, read-out: HIV-induced cyto-pathogenicity ED50; for HIV-induced cyto-pathogenicity S.I.: Selectivity index or ratio of CD50 to ED50, MT4 cells
# Description: HTLV-IIIB (designated HIV) was derived from a pool of American patients with AIDS, and obtained from the supernatant of HIV-infected H9 cell cultures (see M. Popovic et al, Science 224, 497-500 (1984)).
# FddUrd, the unsubstituted analogue and other 3′-fluoro- and 3′-azido-substituted analogues were evaluated for their inhibitory effects on HIV-induced cytopathogenicity in MT4 cells (Table 1, fig. 2).
# [1] = system: Moloney murine sarcoma virus (MSV); assay: Inhibition of transformation of C3H cells by MSV; format: cell-based; conditions: for EC50: Moloney murine sarcoma virus, 144 h, 50% reduction of transformation of C3H cells by MSV, 6 days, read-out: MSV-induced cyto-pathogenicity ED50; for MSV-induced cyto-pathogenicity S.I.: Selectivity index or ratio of CD50 to ED50, C3H cells
# Description: Moloney murine sarcoma virus (MSV) was prepared from tumors induced by in vivo infection of 10 day-old NMRI mice according to the procedure described by De Clercq et al (Proc. Soc. Exp. Biol. Med. 137, 590-594 (1971)).
# ddUrd and the substituted pymiridine 2′,3′-dideoxynucleoside analogues were examined for their inhibitory effect on the transformation of mouse embryo C3H fibroblasts by Moloney murine sarcoma virus (MSV).
# C3H cells were seeded at 20,000 cells per ml into wells of Costar Tissue Culture Cluster plates (48 wells per plate) and grown to confluency. Cell cultures were then infected by 150 foci-forming units of MSV during 90 min, whereafter the culture medium was replaced by 1 ml fresh medium containing different concentrations of the test compound. After 6 days, the transformation of the cell cultures was examined microscopically.
# C3H cells = assay: Cytotoxicity for C3H cells (alteration of normal cell morphology); format: cell-based, mouse
# CEM = assay: Cytostatic effect (cell proliferation, Coulter count); format: cell-based; conditions: Homo sapiens, CCRF-CEM; cell number reduced by 50%, 68-72 hours; read-out: ID50 CEM
# Description: (§1) Raji/0 cells and Raji/TK⁻ (a thymidine (dThd) kinasedeficient mutant cell line derived from wild-type Raji/0 cells, were grown in 75 cm² plastic tissue culture flasks (International Medical, Brussels, Belgium), in Eagle's minimal essential medium, supplemented with 10% (v/v) inactivated foetal calf serum (Gibco, Glasgow, Scotland, U.K.), 2 mM L-glutamine (Flow Laboratories, Irvine, Scotland, U.K.) and 1% THM (5 mM Tes, 7.5 mM Hepes and 5 mM (MOPS) buffer ([…]). The Raji/0 and Raji/TK⁻ cells were characterized according to J. Balzarini et al (Biochem. Pharmacol. 31, 1089-1095 (1982)). Molt/4F, CEM and H9 cells were grown in Eagle's minimal essential medium, supplemented with 10% (v/v) inactivated foetal calf serum and 2 mM L-glutamine. MT4 cells were cultivated in RPMI 1640 medium (Gibco) containing 20 mM Hepes buffer, 10% (v/v) inactivated foetal calf serum (Gibco) and 2 mM L-glutamine (Flow Laboratories).
# (§2) All assays were performed in flat bottom Microtest III Plates (96 wells) (Falcon) as previously described by E. De Clercq et al (Mol. Pharmacol. 19, 321-330 (1981)). Briefly, the cells were suspended in growth medium and added to the microplate wells at a density of 7.5 x 10⁴ cells/well (200 µ1) in the presence of varying concentrations of the test compounds. The cells were then allowed to proliferate for 68-72 hours at 37°C in a humidified, CO₂-controlled atmosphere. At the end of the incubation period, the cells were counted with a Coulter Counter (Coulter Electronics Ltd., Harpenden Herts, U.K.). The 50% inhibitory dose (ID₅₀) was defined as the concentration of compound that reduced the number of cells by 50%.
# H9 = assay: as above; format: cell-based; conditions: Homo sapiens, cell number reduced by 50%, 68-72 hours, read-out: ID50 H9
# Description: as §1, §2
# MT4 = assay: as above; format: cell-based; conditions: Homo sapiens, cell number reduced by 50%, 68-72 hours, read-out: ID50 MT4
# Description: as §1, §2
# Molt/4F = assay: as above; format: cell-based; conditions: Homo sapiens, cell number reduced by 50%, 68-72 hours, read-out: ID50 Molt/4F
# Description: as §1, §2
# Raji/0 = assay: as above; format: cell-based; conditions: Homo sapiens, cell number reduced by 50%, 68-72 hours, read-out: ID50 Raji/0
# Description: as §1, §2
# Raji/TK- = assay: as above; format: cell-based; conditions: Homo sapiens, cell number reduced by 50%, 68-72 hours, read-out: ID50 Raji/TK-
# Description: as §1, §2
# Molt/4F cells = assay: Tritium release from (5-3H)dUrd or (5-3H)dCyd in intact Molt/4F cells; format: cell-based; conditions: Homo sapiens
# Description: Briefly, 10⁷ Molt/4F cells/ml were preincubated with an appropriate amount of test compound for 15 min at 37°C. After this incubation period, radiolabelled (5-³H)dUrd or (5-³H)dCyd (100 µCi/ml; 0.1 µM) were added, and at various times (0, 15, 30, 45, 60 min), 100 µl of the reaction mixture was withdrawn, and mixed with 500 µl of a cold suspension of carbon black (100 mg/ml) in 5% TCA. After centrifugation at 1000 g for 10 min, the supernatants were analysed for radioactivity.
# Molt/4F dThd kinase = target: T1, Molt/4F dThd kinase (Homo sapiens, UniProt P04183); assay: Inhibition of dThd kinase (Lineweaver-Burk); format: biochemical; conditions: for Ki: substrate (2-14C)dThd; for Type of inhibition: with respect to dThd; for inhibitory activity against dThd kinase (in words): at a concentration as high as 750 µM or 1000 µM
# T1 construct: endogenous in cells; host or cells: Molt/4F cells (sonicated extract, 30-70% ammonium sulfate fraction, dialyzed)
# T1 sequence (P04183 1-234): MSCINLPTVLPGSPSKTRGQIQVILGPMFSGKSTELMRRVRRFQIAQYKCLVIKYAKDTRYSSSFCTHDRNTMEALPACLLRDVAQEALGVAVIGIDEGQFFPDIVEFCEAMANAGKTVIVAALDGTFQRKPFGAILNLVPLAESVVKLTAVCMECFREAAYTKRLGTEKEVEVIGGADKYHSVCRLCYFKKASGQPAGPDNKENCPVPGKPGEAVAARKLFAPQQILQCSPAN
# Description: ddUrd and the 3′-fluoro- and 3′-azido-substituted pyrimidine 2′,3′-dideoxynucleoside analogues were evaluated for their inhibitory effect against dThd and dCyd kinase.
# dThd kinase and dCyd kinase were prepared from exponen tially growing Molt/4F cells, which were first washed (2x) with phosphate-buffered saline at 4° and then homogenized by sonication. The suspensions were clarified by centrifugation at 25,000-27,000 x g for 30 min. The 30-70% (NH₄)₂SO₄ precipitate of the supernatant was resuspended in buffer containing 10 uM potassium phosphate, pH 7.5, 10 mM β-mercaptoethanol and 0.1 M KCl, dialyzed against the same buffer, and used for the dThd kinase and the dCyd kinase assays. In these experiments, (2-¹⁴C)dThd and (U-¹⁴C)dCyd served as the radiolabelled substrates. The apparent Km and Ki values were derived from Lineweaver-Burk plots, using a linear regression analysis program.
# [2] = Human immunodeficiency virus 1, MT4, 120 h
# [3] = alteration of normal cell morphology, C3H cells
# [4] = read-out: ID50 tritium release from (5-3H)dCyd
# [5] = read-out: ID50 tritium release from (5-3H)dUrd
SMILES,EC50 (HIV),EC50 (HIV; [2]),HIV-induced cyto-pathogenicity S.I. (HIV),EC50 [1],MSV-induced cyto-pathogenicity CD50 (C3H cells; [3]),IC50 (CEM),IC50 (H9),IC50 (MT4),IC50 (Molt/4F),IC50 (Raji/0),IC50 (Raji/TK-),IC50 (Molt/4F cells; [4]),IC50 (Molt/4F cells; [5]),Ki (Molt/4F dThd kinase; dThd kinase),Type of inhibition (Molt/4F dThd kinase; dThd kinase),"Ki/Km (Molt/4F dThd kinase; dThd kinase, Km 2.5 to 6.6 µM)",MSV-induced cyto-pathogenicity S.I. [1],also measured
"CCc1cn([C@H]2C[C@H](N=[N+]=[N-])[C@@H](CO)O2)c(=O)[nH]c1=O [AzddEtUrd, 3′-azido-2′,3′-dideoxy-5-ethyluridine]",64 µM,> 64 µM,6.5,> 200 µM,>200 µM,> 1000 µM,> 1000 µM,160 µM,> 1000 µM,> 1000 µM,> 1000 µM,> 250 µM,51 µM,175 µM,competitive,28,–,–
"[N-]=[N+]=N[C@H]1C[C@H](n2ccc(=O)[nH]c2=O)O[C@@H]1CO [AzddUrd, 3′-azido-2′,3′-dideoxyuridine]",–,–,677,15 µM,>400 µM,423 µM,> 1000 µM,364 µM,> 1000 µM,≥ 1000 µM,> 1000 µM,> 250 µM,20 µM,224 µM,competitive,–,>27,"fold more effective against HIV replication than the parent compound ddUrd (HIV): 600 fold; EC50 (HIV; Human immunodeficiency virus 1, 120 h): 0.36 µM; Ki/Km (Molt/4F dThd kinase): 71"
"Nc1ccn([C@H]2C[C@H](F)[C@@H](CO)O2)c(=O)n1 [FddCyd, 3′-fluoro-2′,3′-dideoxycytidine]",–,16 µM,1.6,284 µM,>400 µM,7 µM,> 1000 µM,> 1000 µM,24 µM,95 µM,118 µM,–,–,–,–,–,> 1.2,–
"CCc1cn([C@H]2C[C@H](F)[C@@H](CO)O2)c(=O)[nH]c1=O [FddEtUrd, 3′-fluoro-2′,3′-dideoxy-5-ethyluridine]",330 µM,–,>1.9,> 400 µM,>400 µM,> 1000 µM,> 1000 µM,> 1000 µM,> 1000 µM,> 1000 µM,> 1000 µM,–,> 250 µM,266 µM,competitive,72,–,–
"O=c1ccn([C@H]2C[C@H](F)[C@@H](CO)O2)c(=O)[nH]1 [FddUrd, 3′-fluoro-2′,3′-dideoxyuridine]",–,0.04 µM,400,> 400 µM,>400 µM,14 µM,> 1000 µM,> 1000 µM,≥ 1000 µM,> 1000 µM,> 1000 µM,> 250 µM,126 µM,833 µM,competitive,171,–,fold more effective against HIV replication than the parent compound ddUrd (HIV): 5000 fold; fold more potent/effective against HIV than AzddUrd (HIV): 9 fold and 10 fold
"Nc1ccn([C@H]2CC[C@@H](CO)O2)c(=O)n1 [ddCyd, 2′,3′-Dideoxycytidine]",–,0.3 µM,120,25 µM,>400 µM,6 µM,243 µM,≥ 1000 µM,7 µM,23 µM,28 µM,–,–,–,–,–,>16,–
"CCc1cn([C@H]2CC[C@@H](CO)O2)c(=O)[nH]c1=O [ddEtUrd, 2′,3′-Dideoxy-5-ethyluridine]",> 625 µM,–,–,> 400 µM,>400 µM,> 1000 µM,> 1000 µM,326 µM,> 1000 µM,> 1000 µM,> 1000 µM,–,> 250 µM,> 750 µM,–,>200,–,inhibitory activity against dThd kinase (in words) (Molt/4F dThd kinase): no inhibitory activity
"O=c1ccn([C@H]2CC[C@@H](CO)O2)c(=O)[nH]1 [ddUrd, 2′-3′-dideoxyuridine]",210 µM,> 64 µM,> 3,> 400 µM,–,> 1000 µM,> 1000 µM,≥ 1000 µM,> 1000 µM,> 1000 µM,> 1000 µM,> 250 µM,> 250 µM,> 1000 µM,–,–,–,MSV-induced cyto-pathogenicity CD50 (C3H cells): >400 µM; Ki/Km (Molt/4F dThd kinase): >250; inhibitory activity against dThd kinase (in words) (Molt/4F dThd kinase): no inhibitory activity
